In BindingDB's records for doi:10.1021/jm960331f (Oregon State University, 1996):
pKi: −log10 of the molar value.

Experiment: determined in L-pipecolate oxidase from Rehsus monkey

pKi: 3.89
Compound: O=C(O)[C@@H]1CCCCN1 [(S)-pipecolate]
